From paper PMC3781598 (Pharmaceutical research, 2013)

What was measured:
NNK-induced tumors = details: rats; reduced from 70% without inhibitor; cited from earlier work
human CYP2A6 = molecular target: T1, human CYP2A6 (Homo sapiens, UniProt P11509); experiment: Coumarin metabolism assay
T1 sequence (P11509 with tags, fused parts or gaps limits assumed): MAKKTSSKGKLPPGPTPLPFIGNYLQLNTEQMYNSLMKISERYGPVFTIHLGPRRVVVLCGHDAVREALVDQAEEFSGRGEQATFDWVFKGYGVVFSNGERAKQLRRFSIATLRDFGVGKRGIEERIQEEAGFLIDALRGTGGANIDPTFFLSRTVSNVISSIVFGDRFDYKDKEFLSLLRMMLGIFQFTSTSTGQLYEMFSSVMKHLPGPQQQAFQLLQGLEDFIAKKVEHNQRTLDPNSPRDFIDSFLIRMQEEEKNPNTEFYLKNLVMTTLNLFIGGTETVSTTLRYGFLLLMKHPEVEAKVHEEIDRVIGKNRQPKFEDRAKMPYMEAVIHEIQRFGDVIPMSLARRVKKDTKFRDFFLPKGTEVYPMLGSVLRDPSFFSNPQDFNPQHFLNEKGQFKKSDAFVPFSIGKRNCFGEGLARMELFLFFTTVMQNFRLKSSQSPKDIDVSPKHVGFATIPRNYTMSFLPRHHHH

human CYP2A13 [1] = molecular target: T2, human CYP2A13 (Homo sapiens, UniProt Q16696); experiment: Spectral ligand binding assay
T2 sequence (Q16696 25-494): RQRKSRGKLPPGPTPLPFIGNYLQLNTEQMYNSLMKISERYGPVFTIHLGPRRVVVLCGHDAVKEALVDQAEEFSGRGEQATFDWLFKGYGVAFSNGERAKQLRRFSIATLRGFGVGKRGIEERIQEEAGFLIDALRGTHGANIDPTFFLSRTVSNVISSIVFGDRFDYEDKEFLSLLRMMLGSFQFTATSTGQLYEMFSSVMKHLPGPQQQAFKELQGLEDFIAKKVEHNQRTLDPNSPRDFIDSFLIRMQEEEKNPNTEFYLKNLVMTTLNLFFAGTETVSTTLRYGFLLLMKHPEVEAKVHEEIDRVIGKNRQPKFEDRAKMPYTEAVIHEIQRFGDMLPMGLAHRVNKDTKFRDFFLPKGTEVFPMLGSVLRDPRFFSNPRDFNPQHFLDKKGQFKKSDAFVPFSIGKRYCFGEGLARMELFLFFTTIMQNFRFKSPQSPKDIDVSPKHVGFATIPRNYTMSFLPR

CYP2A6 / CYP2A13 [2] = experiment: Spectral ligand binding assay; parameters: species or system human; details: human, Selectivity Kd (2A6)/ Kd (2A13), ratio of the CYP2A6 value to the CYP2A13 value
human CYP2A13 [3] = experiment: Spectral ligand binding assay; details: ratio of the CYP2A6 value to the CYP2A13 value
human CYP2A13 [4] = molecular target: T3, human CYP2A13 (Homo sapiens, UniProt Q16696); experiment: Coumarin metabolism assay
T3 sequence (Q16696 with tags, fused parts or gaps limits assumed): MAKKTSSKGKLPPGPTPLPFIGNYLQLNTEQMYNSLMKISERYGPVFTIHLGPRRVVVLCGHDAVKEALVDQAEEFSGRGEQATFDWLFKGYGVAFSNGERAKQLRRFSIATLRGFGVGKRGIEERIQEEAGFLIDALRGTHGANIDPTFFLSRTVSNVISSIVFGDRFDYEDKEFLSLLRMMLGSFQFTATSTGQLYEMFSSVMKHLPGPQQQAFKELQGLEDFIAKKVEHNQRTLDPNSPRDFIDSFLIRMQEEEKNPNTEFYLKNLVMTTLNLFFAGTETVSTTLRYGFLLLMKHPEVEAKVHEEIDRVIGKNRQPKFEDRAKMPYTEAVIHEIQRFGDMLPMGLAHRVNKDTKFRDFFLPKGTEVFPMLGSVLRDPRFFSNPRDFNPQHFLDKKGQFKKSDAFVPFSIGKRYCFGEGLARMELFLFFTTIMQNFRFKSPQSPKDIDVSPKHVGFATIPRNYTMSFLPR

CYP2A6 / CYP2A13 [5] = experiment: Coumarin metabolism assay; details: human, pH 7.4, probe coumarin (7-hydroxylation), Selectivity Ki (2A6)/ Ki (2A13), ratio of the CYP2A6 value to the CYP2A13 value
human CYP2A13 [6] = experiment: Coumarin metabolism assay; details: ratio of the CYP2A6 value to the CYP2A13 value

Row | Ki (human CYP2A6) [µM] | Mode of inhibition 2A6 (human CYP2A6; coumarin substrate) | α (mixed inhibition) 2A6 (human CYP2A6; coumarin substrate, mixed model inhibition) | Kd (human CYP2A13 [1]; Kd 2A13, spectral titration, ≥ = minimal Kd value) [µM] | Spectral shift type 2A13 (human CYP2A13 [1]; UV/Vis difference spectra) | Selectivity Kd (2A6)/ Kd (2A13) (human CYP2A13 [3]) | Ki (human CYP2A13 [4]) [µM] | Selectivity Ki (2A6)/ Ki (2A13) (human CYP2A13 [6]) | SMILES | NNK-induced tumors (NNK-induced tumors) [%] | selectivity ratio (CYP2A6 / CYP2A13 [2]) | selectivity ratio at 10 min (CYP2A6 / CYP2A13 [5])
1 |  |  |  |  |  |  |  |  | S=C=NCCc1ccccc1 [PEITC, phenethyl isothiocyanate] | 5 |  | 
2 | 483 | mixed inhibition | 3.1 | 8.3 ± 4.1 | I | 18.6 | 59 | 8.2 | Clc1ccccc1CN1CCSCC1 [Compound 18, 4-(2-chlorobenzyl)thiomorpholine] |  | 18 | 8
